Our source for the logP values is the SangsterLogP compilation.

`CCCCN(CCCC)c1cc(N)[n+]([O-])c(N)n1`: the logP (as a rule, the decadic logarithm of the partition coefficient of the neutral form, usually between octanol and water) was determined as 3.19.
For `C=CCN(CC=C)c1cc(N)[n+]([O-])c(N)n1` the value was 1.6.
Consider `Nc1cc(N(C2CCCCC2)C2CCCCC2)nc(N)[n+]1[O-]`, for which the logP was 3.89.
`CCCN(CCC)c1cc(N)[n+]([O-])c(N)n1` yielded a log partition coefficient (logP) of 2.16.
In the case of `CN(C)c1cc(N)[n+]([O-])c(N)n1`, the logP is 0.16.
Next, `CCN(CC)c1cc(N)[n+]([O-])c(N)n1`: 1.16; `N=c1nc(N)c(N2CCCC2)cn1O`: 0.84; `Nc1cc(N2CCOCC2)nc(N)[n+]1[O-]`: 0.36.
As to `CCCCNc1cc(N)[n+]([O-])c(N)n1`, the logP came out at 1.02.
On to `Nc1cc(NC2CCCCC2)nc(N)[n+]1[O-]`, for which the log partition coefficient (logP) was 1.62.
In turn, `CCCCCCCCCCNc1cc(N)[n+]([O-])c(N)n1` came in with a log partition coefficient (logP) of 4.08.
For the compound `CNc1cc(N)[n+]([O-])c(N)n1`, the log partition coefficient (logP) was -0.49.
On to `CCNc1cc(N)[n+]([O-])c(N)n1`, for which the lipophilicity (logP) is -0.04.
